Assay results reported in patent US20090130128A1, “Antiinfective Proanthocyanidin Compounds and Methods of Use Thereof” (priority 2007, published 2009).
Read-outs that look alike come from different tables or passages of the source.

What was measured:
HIV-1 virions = format: binding
H1N1 virions = experiment: Viral Direct Binding Assay with DART TOF-MS; set-up: species or system Influenza A virus (H1N1); conditions: for relative percent of total binding species: bound to H1N1 after incubation in botanical extract
H5N1 virions = format: binding, Influenza A virus (H5N1); conditions: for relative percent of total binding species: bound to H5N1 after incubation in botanical extract
Rhinovirus particles = format: binding
Dengue-2 virus particles = experiment: Viral Direct Binding Assay with DART TOF-MS
[1] = test system: pseudotyped HIV-1 virions; format: cell-based; conditions: GHOST cells, range over clones
[2] = bound to Den-2 after incubation in botanical extract

Compound | Aver:Istro Ratio (HIV-1 virions) | relative percent of total binding species (HIV-1 virions) [%] | Aver:Istro Ratio (H1N1 virions; binding ratio Averionol to Istrocyanidin on H1N1) | relative percent of total binding species (H1N1 virions) [%] | Aver:Istro Ratio (H5N1 virions; binding ratio Averionol to Istrocyanidin on H5N1) | relative percent of total binding species (H5N1 virions) [%] | Aver:Istro Ratio (Rhinovirus particles) | relative percent of total binding species (Rhinovirus particles) [%] | Aver:Istro Ratio (Dengue-2 virus particles) | relative percent of total binding species (Dengue-2 virus particles) [%] | relative percent of total binding species (Dengue-2 virus particles; [2]) [%] | IC100 values for HIV-1 infection [1]
COc1cc(OC)c2c(=O)c(O)c(-c3ccc(OC)c(OC)c3)oc2c1 [Averionol] | 5.9 | 85.6 | 18.9 | 69.8 | 14.0 | 86.9 | 2.3 | 69.5 | 3.7 | 78.5 |  | 
Istrocyanidin |  | 14.4 |  | 3.7 |  | 6.2 |  | 30.5 |  |  | 21.2 | 
Proanthocyanidin B2 |  |  |  |  |  |  |  |  |  |  |  | never achieved
Tristenonol |  | 0 |  | 26.6 |  | 6.9 |  | 0 |  |  | 0 | 
